Reference: US10407455B2, “Phillygenin glucuronic acid derivative as well as preparation method and application thereof” (priority 2015, dated 2019)
Like-named read-outs stand apart in the source and are kept apart here. Marks after values point to notes of the source that are not given here.

Tests used:
Influenza virus [1] = assay: Influences of drugs on virus-induced CPE (antiviral effective rate, MTT), influenza virus; assay type: cell-based
Parainfluenza virus [2] = assay: Influences of drugs on virus-induced CPE (antiviral effective rate, MTT), parainfluenza virus; assay type: cell-based; conditions: Vero cells, 100TCID50, drug at nearly the maximum non-cytotoxic concentration
[3] = test system: Coxsackie virus A16 (CoxA16); assay: Influences of drugs on virus-induced CPE (antiviral effective rate, MTT), CoxA16; assay type: cell-based; conditions: CoxA16, Vero cells, 100TCID50, drug at nearly the maximum non-cytotoxic concentration
[4] = test system: respiratory syncytial virus (RSV); assay: Influences of drugs on virus-induced CPE (antiviral effective rate, MTT), RSV; assay type: cell-based; conditions: Vero cells, 100TCID50, drug at nearly the maximum non-cytotoxic concentration
[5] = test system: herpes simplex virus I (HSV-I); assay: Influences of drugs on virus-induced CPE (antiviral effective rate, MTT), HSV-I; assay type: cell-based; conditions: Vero cells, 100TCID50, drug at nearly the maximum non-cytotoxic concentration
adenovirus (AdV) = assay: Influences of drugs on virus-induced CPE (antiviral effective rate, MTT), ADV; assay type: cell-based; conditions: Vero cells, 100TCID50, drug at nearly the maximum non-cytotoxic concentration
enterovirus EV71 = assay: Influences of drugs on virus-induced CPE (antiviral effective rate, MTT), EV71; assay type: cell-based; conditions: EV71, Vero cells, 100TCID50, drug at nearly the maximum non-cytotoxic concentration
[6] = test system: Coxsackie virus B3 (CVB3); assay: Influences of drugs on virus-induced CPE (antiviral effective rate, MTT), CVB3; assay type: cell-based; conditions: CVB3, Vero cells, 100TCID50, drug at nearly the maximum non-cytotoxic concentration
influenza virus [7] = assay type: in vivo, Kunming mice; conditions: mice infected with influenza virus, 5 days, n = 3
parainfluenza virus [8] = assay type: in vivo, Kunming mice
influenza virus [9] = assay type: in vivo, Kunming mice; conditions: lung suspension, mice infected with influenza virus, 5 days, n = 3
parainfluenza virus [10] = assay type: in vivo, Kunming mice; conditions: lung suspension, mice infected with parainfluenza virus, 5 days, n = 3
Vero cells = conditions: 72 hours, MTT, Probit regression
Description: Performing subculture on Vero cells for 1-2 days to form sheets and have clear boundaries, performing trypsin digestion when stereoscopic impression and diopter are high, completely absorbing digestive juice when needle tip shaped holes occur on cells surfaces, blowing away the cells with milliliters of culture solution, counting, diluting to the quantity of 5×10^7 cells/L with the culture solution (DMEM containing 10% fetal calf serum), inoculating in a 96-well culture plate, and enabling the cells to grow to a single layer.
Cytotoxicity test: drugs are diluted with a maintenance solution (DMEM containing 2% fetal calf serum) according to concentrations shown in Table 1-1, and are used for cytotoxicity determination.

[11] = Influenza virus, Vero cells, 100TCID50, drug at nearly the maximum non-cytotoxic concentration
[12] = mice infected with parainfluenza virus, 13.0 mg/kg/d (Compound I: High-dose group) intragastric, 5 days, n = 3

Structure (SMILES)	antiviral effective rate (ER %) (Influenza virus [1]; [11])	antiviral effective rate (ER %) (Parainfluenza virus [2])	antiviral effective rate (ER %) [3]	antiviral effective rate (ER %) [4]	antiviral effective rate (ER %) [5]	antiviral effective rate (ER %) (adenovirus (AdV))	antiviral effective rate (ER %) (enterovirus EV71)	antiviral effective rate (ER %) [6] [%]	Maximum non-cytotoxic concentration (TC0) (Vero cells) [g/L]	Semi-cytotoxic concentration (TC50) (Vero cells) [µg/mL]	further results
CCOC(=O)C1=C[C@@H](OC(CC)CC)[C@H](NC(C)=O)[C@@H](N)C1 [Oseltamivir phosphate, reference compound]	82.19** %	92.11** %	2.94%	39.22%	63.24** %	12.12%	48.65%	1.53	0.27	834	Lung index (X ± S) (influenza virus [7]; 19.5 mg/kg/d intragastric): 1.176 ± 0.045; Lung index inhibition rate (%) (influenza virus [7]; 19.5 mg/kg/d intragastric): 19.76%; Lung index (X ± S) (parainfluenza virus [8]; mouse, in vivo, 19.5 mg/kg/day): 1.241 ± 0.046; Lung index inhibition rate (%) (parainfluenza virus [8]; mouse, in vivo, 19.5 mg/kg/day): 21.83%; Hemagglutination titer (InX) (influenza virus [9]; 19.5 mg/kg/d intragastric): 20.47 ± 1.104; Inhibition rate (%) of hemagglutination titer (influenza virus [9]; 19.5 mg/kg/d intragastric): 35.26%; Hemagglutination titer (InX) (parainfluenza virus [10]; 19.5 mg/kg/d intragastric): 23.24 ± 1.242; Inhibition rate (%) of hemagglutination titer (parainfluenza virus [10]; 19.5 mg/kg/d intragastric): 31.14%
COc1cc([C@H]2OC[C@H]3[C@@H]2CO[C@H]3c2ccc(OC)c(OC)c2)ccc1O [Phillygenin]	88.17** %	94.06** %	97.03** %	81.41** %	85.36** %	14.25* %	32.27%	2.29	0.012	293	Lung index (X ± S) (influenza virus [7]; 13.0 mg/kg/d intragastric): 1.208 ± 0.025; Lung index inhibition rate (%) (influenza virus [7]; 13.0 mg/kg/d intragastric): 11.67%; Lung index (X ± S) (parainfluenza virus [8]; [12]): 1.349 ± 0.046; Lung index inhibition rate (%) (parainfluenza virus [8]; [12]): 14.56%; Hemagglutination titer (InX) (influenza virus [9]; 13.0 mg/kg/d intragastric): 21.15 ± 1.024; Inhibition rate (%) of hemagglutination titer (influenza virus [9]; 13.0 mg/kg/d intragastric): 29.15%; Hemagglutination titer (InX) (parainfluenza virus [10]; 13.0 mg/kg/d intragastric): 23.63 ± 1.156; Inhibition rate (%) of hemagglutination titer (parainfluenza virus [10]; 13.0 mg/kg/d intragastric): 27.75%
NC(=O)c1ncn([C@@H]2O[C@H](CO)[C@@H](O)[C@H]2O)n1 [Ribavirin, reference compound]		95.13** %	0.72%	52.15* %	64.65** %	0.47%	4.03** %	12.14			antiviral effective rate (ER %) (Influenza virus [1]): 56.44** %; Hemagglutination titer (InX) (influenza virus [9]; 58.5 mg/kg/d intragastric): 21.87 ± 1.050; Inhibition rate (%) of hemagglutination titer (influenza virus [9]; 58.5 mg/kg/d intragastric): 32.35%; Hemagglutination titer (InX) (parainfluenza virus [10]; 58.5 mg/kg/d intragastric): 24.32 ± 1.123; Inhibition rate (%) of hemagglutination titer (parainfluenza virus [10]; 58.5 mg/kg/d intragastric): 23.25%
